Measured values taken from ChEMBL document CHEMBL4177530, “Bufospirostenin A and Bufogargarizin C, Steroids with Rearranged Skeletons from the Toad Bufo bufo gargarizans” (J Nat Prod, 2017).
The source made the active and inactive calls. No cut-off for these calls is given here.

How the values were obtained:
Sus scrofa [1] = species on record: Sus scrofa; assay: Inhibition of Na/K-ATPase in pig kidney microsomal membranes assessed as reduction in inorganic phosphate release from ATP at 12.5 uM incubated for 15 mins by spectrophotometry; format: cell membranes
Sus scrofa [2] = species on record: Sus scrofa; assay: Inhibition of Na/K-ATPase in pig kidney microsomal membranes assessed as reduction in inorganic phosphate release from ATP at 25 uM incubated for 15 mins by spectrophotometry; format: cell membranes

Structure (SMILES): C[C@]12CC[C@H](O)C[C@H]1CC[C@@H]1[C@@H]2CC[C@]2(C)[C@@H](c3ccc(=O)oc3)CC[C@]12O
- inhibition (Sus scrofa [1]): 100%
- inhibition (Sus scrofa [2]): 100%

Structure (SMILES): C=C1CC[C@@]2(OC1)O[C@H]1C[C@H]3[C@@H]4CC=C5C[C@@H](O)C[C@H]5[C@](C)(O)[C@H]4CC[C@]3(C)[C@H]1[C@@H]2C
- inhibition (Sus scrofa [1]): 21%
- inhibition (Sus scrofa [2]): 43%

Structure (SMILES): C[C@]12CCC3=C(C=CC4=C(C3)[C@@H]3C[C@H](C4)O3)[C@H]1CC[C@@H]2c1ccc(=O)oc1
- inhibition (Sus scrofa [1]): inactive
- inhibition (Sus scrofa [2]): inactive
